The source of these data is PubChem BioAssay (NCI).

Some test systems named below: T-47D breast; IGROV1 ovarian; SF-268 CNS; SK-MEL-5 melanoma; HOP-62 NSCLC; MDA-N; CCRF-CEM leukemia; NCI-H460 lung; MCF7 breast; OVCAR-8 ovarian; DU-145 prostate; MDA-MB-231 breast; HL-60(TB) leukemia; RXF 393 renal; M14 melanoma; NCI/ADR-RES ovarian; UO-31 renal; HOP-92 NSCLC; K-562 leukemia; U251 CNS.
What all share (assay): NCI-60 cell line screen, 48 h

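Compound exposure: 48 hours, 5 concentrations, 96-well plates. TGI marks complete inhibition of growth.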

`O=C(O)[C@@H]1CCS(=O)(=O)N1`: the TGI with T-47D breast, with IGROV1 ovarian, in the assay on SF-268 CNS, in the assay with SK-MEL-5 melanoma, with HOP-62 NSCLC and in the assay with MDA-N was > 100 µM throughout. For the same compound, the TGI with CCRF-CEM leukemia, with NCI-H460 lung, in the assay with MCF7 breast, in the assay with OVCAR-8 ovarian, in the assay with DU-145 prostate and in the assay with MDA-MB-231 breast was > 100 µM throughout. In addition, the TGI in the assay with HL-60(TB) leukemia, in the assay on RXF 393 renal, in the assay on M14 melanoma and in the assay on NCI/ADR-RES ovarian was > 100 µM each time.
`O=C1CCCC1CN1CCCC1` (configuration not stated): the TGI was 10.8 µM in the assay on T-47D breast; 26.6 µM in the assay on IGROV1 ovarian; 17.6 µM in the assay on UO-31 renal; 48.5 µM in the assay with SF-268 CNS; 31.9 µM with SK-MEL-5 melanoma; > 100 µM in the assay on HOP-62 NSCLC. Moreover, the TGI was 26.8 µM in the assay with MDA-N; 12.6 µM with HOP-92 NSCLC; 1.16 µM in the assay on CCRF-CEM leukemia; > 58.4 µM in the assay with NCI-H460 lung; 8.53 µM with MCF7 breast; 35.4 µM in the assay with OVCAR-8 ovarian. The TGI is > 66.4 µM in the assay on DU-145 prostate; 31.3 µM in the assay with MDA-MB-231 breast; 3.02 µM in the assay on HL-60(TB) leukemia; 6.74 µM in the assay on M14 melanoma; 37.9 µM in the assay on NCI/ADR-RES ovarian; 1.18 µM in the assay with K-562 leukemia. Moreover, the TGI in the assay with U251 CNS was > 56.8 µM.
Consider `CCOC(=O)C12OC(CCC1=O)C(C(=O)OC)=C2C(=O)OC` (configuration not stated), for which the TGI in the assay with T-47D breast, with IGROV1 ovarian, in the assay with UO-31 renal, in the assay on SF-268 CNS, with SK-MEL-5 melanoma and with HOP-62 NSCLC was > 10 µM throughout. Besides, the TGI in the assay with MDA-N, in the assay with CCRF-CEM leukemia, with NCI-H460 lung, with MCF7 breast, with OVCAR-8 ovarian and with DU-145 prostate was > 10 µM each time. In addition, the TGI in the assay with MDA-MB-231 breast, in the assay with HL-60(TB) leukemia, with RXF 393 renal, with M14 melanoma, with NCI/ADR-RES ovarian and in the assay on K-562 leukemia was > 10 µM in each case. The TGI with U251 CNS is > 10 µM.
Take `CC(=O)c1c(C)n([O-])c2cc(Cl)c(Cl)cc2[n+]1=O`: the TGI in the assay on T-47D breast was > 100 µM; in the assay on IGROV1 ovarian it was 24.4 µM; with UO-31 renal it was 32.9 µM; in the assay with SF-268 CNS, > 100 µM; with SK-MEL-5 melanoma, 26.4 µM; with HOP-62 NSCLC, > 100 µM. For the same compound, the TGI with MDA-N was > 100 µM; with CCRF-CEM leukemia it was 61.5 µM; in the assay on NCI-H460 lung it was 56 µM; in the assay with MCF7 breast, > 100 µM; in the assay on OVCAR-8 ovarian, 89.9 µM; in the assay with DU-145 prostate, > 100 µM. Besides, the TGI was 62.7 µM in the assay on MDA-MB-231 breast; 39.6 µM in the assay on HL-60(TB) leukemia; > 100 µM in the assay on RXF 393 renal; > 100 µM in the assay with M14 melanoma; 75.1 µM with NCI/ADR-RES ovarian; 95.4 µM with K-562 leukemia. Besides, in the assay with U251 CNS, the TGI was > 100 µM.
With `Nc1nc(N)c2c3c(cnc2n1)CC(c1ccccc1)CC3` (configuration not stated), the TGI in the assay with T-47D breast is 56.8 µM; in the assay on IGROV1 ovarian, 21.7 µM; in the assay with SF-268 CNS, 58.5 µM; in the assay on SK-MEL-5 melanoma, > 100 µM; with HOP-62 NSCLC it was 76.7 µM; with MDA-N, > 100 µM. Moreover, the TGI with NCI-H460 lung was > 100 µM; in the assay with MCF7 breast, 30.4 µM; in the assay on OVCAR-8 ovarian it was 26.6 µM; in the assay with DU-145 prostate, > 100 µM; in the assay with MDA-MB-231 breast it was 96.8 µM; with HL-60(TB) leukemia, 24.8 µM. Besides, the TGI in the assay on RXF 393 renal was 47.9 µM; in the assay on M14 melanoma, > 100 µM; in the assay on NCI/ADR-RES ovarian, > 100 µM; in the assay on K-562 leukemia, > 100 µM; in the assay on U251 CNS, > 100 µM.
Consider `CCCCNC(=S)Nc1nc(C(=O)NNC(=S)Nc2ccccc2)cs1`, for which the TGI in the assay on T-47D breast, in the assay on UO-31 renal, in the assay with SF-268 CNS, in the assay on SK-MEL-5 melanoma, in the assay on HOP-62 NSCLC and in the assay on MDA-N was > 100 µM in each case. Further, the TGI in the assay with HOP-92 NSCLC is 38.6 µM; in the assay on CCRF-CEM leukemia it was > 100 µM; in the assay on NCI-H460 lung, > 100 µM; with MCF7 breast, > 100 µM; in the assay with OVCAR-8 ovarian it was > 100 µM; with DU-145 prostate it was > 100 µM. Also, the TGI was 87.2 µM with MDA-MB-231 breast, > 100 µM in the assay with M14 melanoma, > 100 µM in the assay on NCI/ADR-RES ovarian and 48.3 µM with U251 CNS.
Take `CCOC(=O)c1nnc2c(C(=O)OCC)c3ccccc3n2c1N`: the TGI with T-47D breast is > 100 µM; in the assay with IGROV1 ovarian, 38.2 µM; in the assay on UO-31 renal, > 100 µM; in the assay with SF-268 CNS, > 100 µM; in the assay with SK-MEL-5 melanoma, 51.8 µM; in the assay on HOP-62 NSCLC, > 100 µM. The TGI in the assay with MDA-N is > 100 µM; in the assay on NCI-H460 lung it was > 100 µM; with MCF7 breast, > 100 µM; in the assay with OVCAR-8 ovarian, > 100 µM; with DU-145 prostate, > 100 µM; in the assay with MDA-MB-231 breast, 87.8 µM. Besides, the TGI was 5.52 µM in the assay with HL-60(TB) leukemia; > 100 µM with RXF 393 renal; > 100 µM in the assay on M14 melanoma; 43.6 µM in the assay with NCI/ADR-RES ovarian; > 100 µM in the assay on K-562 leukemia; > 100 µM in the assay on U251 CNS.
`O=C(O)C(NCc1ccccc1)C(NCc1ccccc1)C(=O)O` (configuration not stated): the TGI in the assay with T-47D breast, with IGROV1 ovarian, in the assay on UO-31 renal, in the assay on SF-268 CNS, with SK-MEL-5 melanoma and in the assay with HOP-62 NSCLC was > 100 µM in each case. The TGI with MDA-N, in the assay with HOP-92 NSCLC, with CCRF-CEM leukemia, in the assay on NCI-H460 lung, in the assay with MCF7 breast and in the assay with OVCAR-8 ovarian was > 100 µM throughout. Further, the TGI in the assay with DU-145 prostate, with MDA-MB-231 breast, with HL-60(TB) leukemia, with M14 melanoma, in the assay on NCI/ADR-RES ovarian and with K-562 leukemia was > 100 µM in each case. Further, the TGI in the assay with U251 CNS is > 100 µM.
As to `CC(C)C(=O)OCC1OC(n2c(Br)nc3c(=O)[nH]c(N)nc32)C(OC(=O)C(C)C)C1OC(=O)C(C)C` (configuration not stated), the TGI with T-47D breast, in the assay with UO-31 renal, in the assay with SF-268 CNS, in the assay with HOP-62 NSCLC, in the assay with MDA-N and in the assay with HOP-92 NSCLC was > 100 µM each time. Further, the TGI with NCI-H460 lung was 58 µM; with MCF7 breast, > 100 µM; in the assay on OVCAR-8 ovarian, > 100 µM; with DU-145 prostate it was > 100 µM; in the assay on MDA-MB-231 breast, > 100 µM; in the assay on M14 melanoma it was > 100 µM. Further, in the assay with NCI/ADR-RES ovarian, the TGI is > 100 µM.
Take `COC(=O)C(Cc1c[nH]c2ccccc12)NP(=O)(O)OCC1OC(n2cc(I)c(=O)[nH]c2=O)CC1O` (configuration not stated): the TGI in the assay on T-47D breast, with IGROV1 ovarian, with UO-31 renal, in the assay with SF-268 CNS, in the assay on SK-MEL-5 melanoma and in the assay with HOP-62 NSCLC was > 100 µM each time. For the same compound, the TGI with MDA-N, in the assay on HOP-92 NSCLC, in the assay with CCRF-CEM leukemia, in the assay on NCI-H460 lung, in the assay with MCF7 breast and with OVCAR-8 ovarian was > 100 µM in each case. The TGI in the assay on DU-145 prostate, with MDA-MB-231 breast, in the assay with HL-60(TB) leukemia, in the assay with M14 melanoma, in the assay with NCI/ADR-RES ovarian and in the assay on K-562 leukemia was > 100 µM in each case. For the same compound, the TGI in the assay on U251 CNS is > 100 µM.
In the case of `Nc1nc(SC/C=C/c2ccccc2)c2[nH]cnc2n1`, the TGI in the assay on T-47D breast, with IGROV1 ovarian, in the assay with UO-31 renal, in the assay with SF-268 CNS, in the assay on SK-MEL-5 melanoma and in the assay on HOP-62 NSCLC was > 100 µM throughout. The TGI in the assay with MDA-N, in the assay with CCRF-CEM leukemia, in the assay with NCI-H460 lung, in the assay on MCF7 breast, with OVCAR-8 ovarian and with DU-145 prostate was > 100 µM in each case. Also, the TGI in the assay with MDA-MB-231 breast, in the assay with HL-60(TB) leukemia, in the assay on RXF 393 renal, in the assay with M14 melanoma, in the assay on NCI/ADR-RES ovarian and in the assay with K-562 leukemia was > 100 µM in each case. The TGI in the assay with U251 CNS is > 100 µM.
Take `COc1ccc(P2(=S)OC(C)(C)C(C)(C)O2)cc1`: the TGI with T-47D breast, in the assay with IGROV1 ovarian, with UO-31 renal, in the assay on SK-MEL-5 melanoma, with HOP-62 NSCLC and with MDA-N was > 100 µM each time. The TGI with HOP-92 NSCLC, in the assay with CCRF-CEM leukemia, in the assay with NCI-H460 lung, with MCF7 breast, in the assay on OVCAR-8 ovarian and in the assay on DU-145 prostate was > 100 µM each time. In addition, the TGI in the assay on MDA-MB-231 breast, in the assay on HL-60(TB) leukemia, in the assay on M14 melanoma, with NCI/ADR-RES ovarian, with K-562 leukemia and in the assay on U251 CNS was > 100 µM throughout.
